Experimental data from paper PMC3985299, “Single Ascending Dose Safety and Pharmacokinetics of CDRI-97/78: First-in-Human Study of a Novel Antimalarial Drug” (Malaria Research and Treatment, 2014).

Columns and labels:
healthy human volunteers = test: Single ascending dose study: biochemical parameters (liver function tests, serum electrolytes); assay type: in vivo; set-up: Total serum bilirubin / Serum SGOT / Serum SGPT: unit not given here
Source text: The study was approved by the Institute's Ethics Committee. The single ascending dose study and the pharmacokinetic study are registered with Central Trial Registry of India (CTRI/2012/07/002812; CTRI/2012/07/002832). Normal healthy male volunteers in the age group of 18–45 years were invited to join the trial. A detailed informed consent process of the volunteers was undertaken and screening of the volunteers was done after obtaining informed consent. They were recruited through contacts and hospital employees were excluded. The health status of the volunteers was determined by taking medical history, physical examination, routine haematology (haemoglobin, total lymphocyte count, differential count, and platelet count), clinical biochemistry (serum glutamic oxaloacetic transaminase (SGOT), serum glutamic pyruvic transaminase (SGPT), serum bilirubin, serum creatinine, blood urea, serum electrolytes, random blood sugar, total protein, and serum lipid profile), and urine and stool analysis (routine examination and microscopy). The volunteers were asked to report to the study site after 12 hours of fasting for the blood tests. Chest X-ray and 12-lead ECG were also taken. The participants were also screened for human immunodeficiency virus (HIV) and hepatitis B. The volunteers after giving informed consent were screened. The screening process was done latest within 1 month of admission for dosing. The volunteers who fulfilled the inclusion/exclusion criteria were admitted in the CPU the night before drug administration. Standardized dinner was served at 9 pm the night prior to dosing. On day 0, baseline blood sample for biochemical and haematological examination and stool and urine samples for routine and microscopy were taken. They received the study drug, according to the randomization sequence, under supervision. The empty packaging was returned to the container. The volunteers received drug as per randomization. Breakfast was given half an hour after drug administration. Subsequently, standardized lunch and dinner were served to the volunteers. The subjects were attached to a cardiac monitor and vital HR, BP, ECG, oxygen saturation, and RR were recorded. Corrected QT interval using Fridericia's formula was calculated. Adverse events were assessed at specific time points (0.5, 1, 2, 4, 6, 8, 12, and 24 hrs after medication). Unscheduled monitoring was undertaken whenever it felt necessary. The volunteers were discharged after 24 hrs and they had to return at 48 hrs and on the 7th day for follow-up. At the end of the 7th day, they were said to have completed the study. Routine haematological and biochemical investigations were performed at 0 hr, 24 hrs after drug administration, and on day 7. The study was monitored by a Data Safety Monitoring Board.

[1] = tested on: chloroquine sensitive P. berghei; set-up: method as in printed; conditions: chloroquine sensitive P. berghei in mice; background, ref not given; cited from earlier work
P. cynomolgi = tested on: P. cynomolgi; set-up: method as in printed; conditions: P. cynomolgi in rhesus monkeys; background, ref not given; cited from earlier work
rats = tested on: rats; set-up: method as in printed; conditions: preclinical, used for starting dose, ref not given; cited from earlier work
[2] = tested on: multidrug resistant P. yoelii; set-up: method as in printed; conditions: multidrug resistant P. yoelii in mice; background, ref not given; cited from earlier work

SMILES: C=C(c1ccc(OC(C)(C)COC(=O)CCC(=O)O)cc1)C1COC2(OO1)C1CC3CC(C1)CC2C3 (stereo not drawn) [CDRI 97/78, Mono[2methyl2[3(1spiro[tricycle[3.3.1.13,7]decane2,3′-[1,2,4]trioxan] 6′-ylethenyl)phenoxy]propyl] ester]
- Serum Alkaline phosphatase (healthy human volunteers; 80 mg (n = 6), 24 hour): 102.5 ± 30.09
- Serum SGOT (healthy human volunteers; 80 mg (n = 6), 24 hour): 23.48 ± 2.88
- Serum SGPT (healthy human volunteers; 80 mg (n = 6), 24 hour): 26.2 ± 6.6
- Total serum bilirubin (healthy human volunteers; 80 mg (n = 6), 24 hour): 0.73 ± 0.24
- Serum Alkaline phosphatase (healthy human volunteers; 80 mg (n = 6), Baseline): 95.5 ± 26.65
- Serum SGOT (healthy human volunteers; 80 mg (n = 6), Baseline): 22.15 ± 6.3
- Serum SGPT (healthy human volunteers; 80 mg (n = 6), Baseline): 21.88 ± 10.0
- Total serum bilirubin (healthy human volunteers; 80 mg (n = 6), Baseline): 0.82 ± 0.24
- Serum Alkaline phosphatase (healthy human volunteers; 80 mg (n = 6), Day 7): 106.83 ± 37.12
- Serum SGOT (healthy human volunteers; 80 mg (n = 6), Day 7): 27.7 ± 6.1
- Serum SGPT (healthy human volunteers; 80 mg (n = 6), Day 7): 21.8 ± 3.7
- Total serum bilirubin (healthy human volunteers; 80 mg (n = 6), Day 7): 0.64 ± 0.23
- Serum Alkaline phosphatase (healthy human volunteers; 160 mg (n = 6), 24 hour): 212 ± 67
- Serum SGOT (healthy human volunteers; 160 mg (n = 6), 24 hour): 33.98 ± 9.69
- Serum SGPT (healthy human volunteers; 160 mg (n = 6), 24 hour): 39.43 ± 8.08
- Total serum bilirubin (healthy human volunteers; 160 mg (n = 6), 24 hour): 0.55 ± 0.07
- Serum Alkaline phosphatase (healthy human volunteers; 160 mg (n = 6), Baseline): 211.5 ± 68.65
- Serum SGOT (healthy human volunteers; 160 mg (n = 6), Baseline): 34.18 ± 7.89
- Serum SGPT (healthy human volunteers; 160 mg (n = 6), Baseline): 37.21 ± 4.16
- Total serum bilirubin (healthy human volunteers; 160 mg (n = 6), Baseline): 0.76 ± 0.39
- Serum Alkaline phosphatase (healthy human volunteers; 160 mg (n = 6), Day 7): 207.17 ± 61.03
- Serum SGOT (healthy human volunteers; 160 mg (n = 6), Day 7): 38.33 ± 8.91
- Serum SGPT (healthy human volunteers; 160 mg (n = 6), Day 7): 44.5 ± 11.64
- Total serum bilirubin (healthy human volunteers; 160 mg (n = 6), Day 7): 0.6 ± 0.06
- Serum Alkaline phosphatase (healthy human volunteers; 320 mg (n = 6), 24 hour): 222.5 ± 34.55
- Serum SGOT (healthy human volunteers; 320 mg (n = 6), 24 hour): 34.17 ± 7.76
- Serum SGPT (healthy human volunteers; 320 mg (n = 6), 24 hour): 37.33 ± 8.87
- Total serum bilirubin (healthy human volunteers; 320 mg (n = 6), 24 hour): 0.8 ± 0.4
- Serum Alkaline phosphatase (healthy human volunteers; 320 mg (n = 6), Baseline): 242 ± 45.24
- Serum SGOT (healthy human volunteers; 320 mg (n = 6), Baseline): 32.83 ± 5.15
- Serum SGPT (healthy human volunteers; 320 mg (n = 6), Baseline): 33.83 ± 9.09
- Total serum bilirubin (healthy human volunteers; 320 mg (n = 6), Baseline): 0.73 ± 0.52
- Serum Alkaline phosphatase (healthy human volunteers; 320 mg (n = 6), Day 7): 235.83 ± 32.49
- Serum SGOT (healthy human volunteers; 320 mg (n = 6), Day 7): 35 ± 8.53
- Serum SGPT (healthy human volunteers; 320 mg (n = 6), Day 7): 38.33 ± 13.84
- Total serum bilirubin (healthy human volunteers; 320 mg (n = 6), Day 7): 0.87 ± 0.59
- Serum Alkaline phosphatase (healthy human volunteers; 400 mg (n = 6), 24 hour): 251.67 ± 47.59
- Serum SGOT (healthy human volunteers; 400 mg (n = 6), 24 hour): 31.5 ± 4.5
- Serum SGPT (healthy human volunteers; 400 mg (n = 6), 24 hour): 35.17 ± 4.12
- Total serum bilirubin (healthy human volunteers; 400 mg (n = 6), 24 hour): 0.53 ± 0.05
- Serum Alkaline phosphatase (healthy human volunteers; 400 mg (n = 6), Baseline): 232.83 ± 42
- Serum SGOT (healthy human volunteers; 400 mg (n = 6), Baseline): 26.67 ± 6.62
- Serum SGPT (healthy human volunteers; 400 mg (n = 6), Baseline): 29 ± 5.44
- Total serum bilirubin (healthy human volunteers; 400 mg (n = 6), Baseline): 0.52 ± 0.04
- Serum Alkaline phosphatase (healthy human volunteers; 400 mg (n = 6), Day 7): 242.83 ± 34.82
- Serum SGOT (healthy human volunteers; 400 mg (n = 6), Day 7): 32.33 ± 8.87
- Serum SGPT (healthy human volunteers; 400 mg (n = 6), Day 7): 38 ± 12.95
- Total serum bilirubin (healthy human volunteers; 400 mg (n = 6), Day 7): 0.55 ± 0.08
- Serum Alkaline phosphatase (healthy human volunteers; 500 mg (n = 6), 24 hour): 313 ± 124.5
- Serum SGOT (healthy human volunteers; 500 mg (n = 6), 24 hour): 31.5 ± 6.02
- Serum SGPT (healthy human volunteers; 500 mg (n = 6), 24 hour): 34.83 ± 11.07
- Total serum bilirubin (healthy human volunteers; 500 mg (n = 6), 24 hour): 0.52 ± 0.04
- Serum Alkaline phosphatase (healthy human volunteers; 500 mg (n = 6), Baseline): 321.17 ± 151
- Serum SGOT (healthy human volunteers; 500 mg (n = 6), Baseline): 31.33 ± 8.76
- Serum SGPT (healthy human volunteers; 500 mg (n = 6), Baseline): 32.83 ± 11.5
- Total serum bilirubin (healthy human volunteers; 500 mg (n = 6), Baseline): 0.52 ± 0.04
- Serum Alkaline phosphatase (healthy human volunteers; 500 mg (n = 6), Day 7): 339.67 ± 184.25
- Serum SGOT (healthy human volunteers; 500 mg (n = 6), Day 7): 34 ± 6.00
- Serum SGPT (healthy human volunteers; 500 mg (n = 6), Day 7): 35.33 ± 10.56
- Total serum bilirubin (healthy human volunteers; 500 mg (n = 6), Day 7): 0.53 ± 0.05
- Serum Alkaline phosphatase (healthy human volunteers; 600 mg (n = 6), 24 hour): 275.83 ± 61.29
- Serum SGOT (healthy human volunteers; 600 mg (n = 6), 24 hour): 30.33 ± 6.74
- Serum SGPT (healthy human volunteers; 600 mg (n = 6), 24 hour): 30.5 ± 8.46
- Total serum bilirubin (healthy human volunteers; 600 mg (n = 6), 24 hour): 0.8 ± 0.59
- Serum Alkaline phosphatase (healthy human volunteers; 600 mg (n = 6), Baseline): 272.5 ± 66.71
- Serum SGOT (healthy human volunteers; 600 mg (n = 6), Baseline): 31.17 ± 6.3
- Serum SGPT (healthy human volunteers; 600 mg (n = 6), Baseline): 30 ± 7.16
- Total serum bilirubin (healthy human volunteers; 600 mg (n = 6), Baseline): 0.8 ± 0.54
- Serum Alkaline phosphatase (healthy human volunteers; 600 mg (n = 6), Day 7): 274 ± 75.17
- Serum SGOT (healthy human volunteers; 600 mg (n = 6), Day 7): 31.33 ± 5.78
- Serum SGPT (healthy human volunteers; 600 mg (n = 6), Day 7): 33.17 ± 10.53
- Total serum bilirubin (healthy human volunteers; 600 mg (n = 6), Day 7): 0.82 ± 0.59
- Serum Alkaline phosphatase (healthy human volunteers; 700 mg (n = 2), 24 hour): 254 ± 56.57
- Serum SGOT (healthy human volunteers; 700 mg (n = 2), 24 hour): 40 ± 4.24
- Serum SGPT (healthy human volunteers; 700 mg (n = 2), 24 hour): 46.5 ± 4.95
- Total serum bilirubin (healthy human volunteers; 700 mg (n = 2), 24 hour): 0.6 ± 0.14
- Serum Alkaline phosphatase (healthy human volunteers; 700 mg (n = 2), Baseline): 261.5 ± 50.2
- Serum SGOT (healthy human volunteers; 700 mg (n = 2), Baseline): 35.5 ± 0.71
- Serum SGPT (healthy human volunteers; 700 mg (n = 2), Baseline): 46 ± 5.66
- Total serum bilirubin (healthy human volunteers; 700 mg (n = 2), Baseline): 0.6 ± 0.14
- Serum Alkaline phosphatase (healthy human volunteers; 700 mg (n = 2), Day 7): 260.5 ± 44.55
- Serum SGOT (healthy human volunteers; 700 mg (n = 2), Day 7): 34.5 ± 0.71
- Serum SGPT (healthy human volunteers; 700 mg (n = 2), Day 7): 40 ± 11.31
- Total serum bilirubin (healthy human volunteers; 700 mg (n = 2), Day 7): 0.55 ± 0.07
- Serum sodium and serum potassium values vs normal physiological ranges (healthy human volunteers; all time points, all groups): None of the volunteers had values outside the normal physiological ranges
- Serum bilirubin, SGOT and SGPT, intergroup comparisons (healthy human volunteers; any time point of measurement, 80-700 mg and placebo): no significant difference
- Antimalarial activity [1]: powerful antimalarial activity
- Antimalarial activity (P. cynomolgi): powerful antimalarial activity
- Maximum tolerated dose (rats): 100 mg/kg
- Antimalarial activity [2]: powerful antimalarial activity
